Broadly, the IC50 is the midpoint of a concentration-inhibition curve.

Each structure is given as a SMILES string.

Assay [1] relates to HEK293. Nature of the assay: maximal inhibition of ZIKV NS1 production (% inhibition); higher = stronger antiviral effect. How it is done:
(§1)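 HEK293 cells in 1536-well plates were pre-treated with compound for 1 h, infected with ZIKV (MOI 1) for 24 h, and NS1 antigen (intra- plus extracellular) was measured by TR-FRET. Confirmation used 11-point 1:3 dilutions, and IC50 and maximal inhibition were fitted in GraphPad Prism.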

Assay [2] deals with HEK293. Nature of the assay: IC50 for inhibition of ZIKV NS1 production. As for the experimental part:
as §1

Assay [3] concerns HEK293. Nature of the assay: cytotoxicity IC50 (ATP content, uninfected cells); higher = less cytotoxic. The following applies: infection: none.

Take `COC(=O)Nc1nc2cc(C(=O)c3ccccc3)ccc2[nH]1`: in assay [1], the maximal inhibition worked out at 69. For the same compound, the IC50 in assay [2] was 1 µM. Moreover, in assay [3], the “cytotoxicity IC50” value was more than 100 µM.
Regarding `OCCN1CCN(CCCN2c3ccccc3Sc3ccc(C(F)(F)F)cc32)CC1`, the maximal inhibition in assay [1] is 84. The compound also had an IC50 in assay [2] of 25 µM. The “cytotoxicity IC50” value in assay [3] was more than 100 µM.
For `CC[C@]1(O)C[C@H]2CN(CCc3c([nH]c4ccccc34)[C@@](C(=O)OC)(c3cc4c(cc3OC)N(C=O)[C@H]3[C@@](O)(C(=O)OC)[C@H](OC(C)=O)[C@]5(CC)C=CCN6CC[C@]43[C@@H]65)C2)C1`, in that order: 55, 0.16 µM and more than 100 µM.
The like results for `S=c1nc[nH]c2nc[nH]c12` were, in that order, 99, 12 µM and 6.5 µM.
In assay [1], `CCC[C@@H](C=O)NC(=O)[C@H](CC(C)C)NC(=O)[C@H](CC(C)C)NC(=O)OCc1ccccc1` returned a maximal inhibition of 94. Moreover, in assay [2], the half-inhibitory concentration (IC50) is 1.6 µM. Moreover, the “cytotoxicity IC50” value in assay [3] came out at 2.4 µM.
Take `CC[C@@H]([C@H](C)O)n1ncn(-c2ccc(N3CCN(c4ccc(OC[C@@H]5CO[C@@](Cn6cncn6)(c6ccc(F)cc6F)C5)cc4)CC3)cc2)c1=O`: the maximal inhibition in assay [1] was 73. In addition, the 50% inhibitory concentration (IC50) in assay [2] worked out at 18 µM. Moreover, the “cytotoxicity IC50” value in assay [3] stood at 9.7 µM.
Consider `Cc1[nH]nc2ccc(-c3cncc(OC[C@@H](N)Cc4ccccc4)c3)cc12`, for which the maximal inhibition in assay [1] was 97. Further, in assay [2], the half-maximal inhibitory concentration (IC50) was found to be 5.1 µM. For the same compound, the “cytotoxicity IC50” value in assay [3] was 0.36 µM.
For `CC1=C(O)C(=O)C=C2C1=CC=C1[C@@]2(C)CC[C@@]2(C)[C@@H]3C[C@](C)(C(=O)O)CC[C@]3(C)CC[C@]12C`, in that order: 106, 3.4 µM and 2.2 µM.
The like results for `O=C(Nc1ccncc1)C(=O)c1cn(Cc2ccc(Cl)cc2)c2ccccc12` were, in that order, 39, 1.3 µM and 70 µM.
The like results for `Cc1cc(Nc2cc(N3CCN(C)CC3)nc(Sc3ccc(NC(=O)C4CC4)cc3)n2)n[nH]1` were, in that order, 107, 14 µM and more than 100 µM.
For the compound `Cc1ncc(-c2ccnc(Nc3ccc(S(C)(=O)=O)cc3)n2)n1C(C)C`, the maximal inhibition in assay [1] is 99. In assay [2], this compound gave an IC50 of 9.2 µM. Also, the “cytotoxicity IC50” value in assay [3] was more than 100 µM.
Regarding `Cc1ccc([N+](=O)[O-])[c]2c1[O][Hg]2`, in assay [1], the maximal inhibition worked out at 107. The compound further yielded a 50% inhibitory concentration (IC50) in assay [2] of 14 µM. Moreover, in assay [3], the “cytotoxicity IC50” value was 9 µM.
As for `CC1=CC(=O)c2ccccc2C1=O`, in assay [1], the maximal inhibition turned out to be 101. Moreover, the concentration for half-maximal inhibition (IC50) in assay [2] amounted to 44 µM. In addition, the “cytotoxicity IC50” value in assay [3] worked out at 45 µM.
In turn, `Nc1c2ccccc2nc2ccccc12` came in with a maximal inhibition in assay [1] of 102. In addition, the 50% inhibitory concentration (IC50) in assay [2] was found to be 21 µM. For the same compound, the “cytotoxicity IC50” value in assay [3] was found to be 100 µM.
In the case of `OCCCNc1cc(-c2ccnc(Nc3cccc(Cl)c3)n2)ccn1`, the maximal inhibition in assay [1] was found to be 103. For the same compound, the half-maximal inhibitory concentration (IC50) in assay [2] is 0.79 µM. The “cytotoxicity IC50” value in assay [3] is 60 µM.
The compound `C[C@@H](Oc1cc(-n2cnc3ccc(CN4CCN(C)CC4)cc32)sc1C(N)=O)c1ccccc1C(F)(F)F` displayed a maximal inhibition in assay [1] of 98. Besides, the half-inhibitory concentration (IC50) in assay [2] came out at 14 µM. Further, the “cytotoxicity IC50” value in assay [3] was more than 100 µM.
The like results for `CC(C)(O)/C=C/C(=O)[C@](C)(O)[C@H]1[C@H](O)C[C@@]2(C)[C@@H]3CC=C4[C@@H](C=C(O)C(=O)C4(C)C)[C@]3(C)C(=O)C[C@]12C` were, in that order, 52, 45 µM and 3 µM.
As for `C[C@H](NCc1ccc2c(c1)nc(NC(=O)c1ccc(-c3cn[nH]c3)s1)n2CCc1ccccc1)C(C)(C)C`, the maximal inhibition in assay [1] worked out at 98. Further, in assay [2], the IC50 was found to be 17 µM. In addition, the “cytotoxicity IC50” value in assay [3] was more than 100 µM.
`CCOC(=O)C1=C(C)NC2=C(C(=O)CC(C)(C)C2)C1c1ccc(-c2ccccc2)cc1` (stereo unspecified) came in with a maximal inhibition in assay [1] of 89. In assay [2], this compound returned a half-inhibitory concentration (IC50) of 17 µM. In addition, the “cytotoxicity IC50” value in assay [3] was more than 100 µM.
For `Cc1n[nH]c2ccc(-c3cncc(OC[C@@H](N)Cc4c[nH]c5ccccc45)c3)cc12`, in that order: 103, 8.5 µM and more than 100 µM.
For `O=C1/C(=C/c2ccccc2)C[C@@]2(O)[C@H]3Cc4ccc(O)c5c4[C@@]2(CCN3CC2CC2)[C@H]1O5`, in that order: 106, 7.2 µM and 2.4 µM.
The compound `CC[C@@]1(O)C(=O)OCc2c1cc1n(c2=O)Cc2cc3ccccc3nc2-1` gave a maximal inhibition in assay [1] of 82. This compound had an IC50 in assay [2] of 0.026 µM. In addition, the “cytotoxicity IC50” value in assay [3] was more than 100 µM.
In turn, `CS(=O)(=O)N1CCN(Cc2cc3nc(-c4cccc5[nH]ncc45)nc(N4CCOCC4)c3s2)CC1` had a maximal inhibition in assay [1] of 65. Moreover, the IC50 in assay [2] came out at 5.6 µM. Further, the “cytotoxicity IC50” value in assay [3] is 70 µM.
Turning to `C#CCC(Cc1cnc2nc(N)nc(N)c2n1)c1ccc(C(=O)N[C@@H](CCC(=O)O)C(=O)O)cc1` (stereo partly specified), in assay [1], the maximal inhibition is 101. This compound also showed a 50% inhibitory concentration (IC50) in assay [2] of 0.45 µM. For the same compound, in assay [3], the “cytotoxicity IC50” value worked out at 0.46 µM.
For `O=C1c2ccccc2-[n+]2ccc3c([nH]c4ccccc43)c21`, in that order: 86, 2 µM and 7.5 µM.
The like results for `C[C@@H]1O[C@@H](O[C@@H]2C=C3CC[C@@H]4[C@H](CC[C@]5(C)[C@@H](c6ccc(=O)oc6)CC[C@]45O)[C@@]3(C)CC2)[C@H](O)[C@H](O)[C@H]1O` were, in that order, 105, 0.027 µM and 0.011 µM.
The like results for `CCC1=C[C@@H]2CN(C1)Cc1c([nH]c3ccccc13)[C@@](C(=O)OC)(c1cc3c(cc1OC)N(C)[C@H]1[C@@](O)(C(=O)OC)[C@H](OC(C)=O)[C@]4(CC)C=CCN5CC[C@]31[C@@H]54)C2` were, in that order, 95, 0.27 µM and more than 100 µM.
In assay [1], `CC[C@@H]1[C@@H](C)O[C@@](O)([C@@H](C)[C@H](O)[C@H](C)[C@H]2OC(=O)/C=C/C=C/[C@H](C)[C@@H]([C@@H](C)[C@@H](O)[C@H](C)[C@@]3(O)C[C@@H](O[C@H]4C[C@H](O)[C@H](O)[C@H](C)O4)[C@H](CC)[C@@H](C)O3)OC(=O)/C=C/C=C/[C@@H]2C)C[C@H]1O[C@H]1C[C@H](O)[C@H](O)[C@H](C)O1` gave a maximal inhibition of 100. In assay [2], this compound had an IC50 of 3.9 µM. Also, the “cytotoxicity IC50” value in assay [3] came out at 1.5 µM.
`COC(=O)[C@]12CCC(C)(C)C[C@H]1[C@H]1C(=O)C=C3[C@@]4(C)C=C(C#N)C(=O)C(C)(C)[C@@H]4CC[C@@]3(C)[C@]1(C)CC2`: the maximal inhibition in assay [1] worked out at 100. In assay [2], the half-maximal inhibitory concentration (IC50) worked out at 0.28 µM. Moreover, the “cytotoxicity IC50” value in assay [3] was 2.7 µM.
The like results for `C=CCn1c(=O)c2cnc(Nc3ccc(N4CCN(C)CC4)cc3)nc2n1-c1cccc(C(C)(C)O)n1` were, in that order, 99, 1.7 µM and more than 100 µM.
In assay [1], `CC(=O)O[C@H]1C(=O)[C@@]2(C)[C@H]([C@H](OC(=O)c3ccccc3)[C@]3(O)C[C@H](OC(=O)[C@H](O)[C@@H](NC(=O)c4ccccc4)c4ccccc4)C(C)=C1C3(C)C)[C@]1(OC(C)=O)CO[C@@H]1C[C@@H]2O` registered a maximal inhibition of 38. Besides, the IC50 in assay [2] was 0.089 µM. In addition, the “cytotoxicity IC50” value in assay [3] is more than 100 µM.
The like results for `CC(C)C[C@H](NC(=O)[C@H](Cc1ccccc1)NC(=O)c1cnccn1)B(O)O` were, in that order, 95, 0.025 µM and 0.04 µM.
In assay [1], `O=C(Cc1ccc(-c2ccc(OCCN3CCOCC3)cc2)cn1)NCc1ccccc1` showed a maximal inhibition of 50. In assay [2], this compound yielded an IC50 of 0.48 µM. Also, the “cytotoxicity IC50” value in assay [3] is 19 µM.
`CCOC(=O)C1(c2ccccc2)CCN(CCC(C#N)(c2ccccc2)c2ccccc2)CC1`: the maximal inhibition in assay [1] was 105. This compound gave a concentration for half-maximal inhibition (IC50) in assay [2] of 6 µM. For the same compound, the “cytotoxicity IC50” value in assay [3] worked out at 9.2 µM.
For `O=C1C(SCCO)=C(SCCO)C(=O)c2ccccc21`, in that order: 97, 5.5 µM and 5.3 µM.
The compound `O=[N+]([O-])c1ccc2c(c1)S(=O)(=O)C=C2` had a maximal inhibition in assay [1] of 103. For the same compound, the IC50 in assay [2] was 11 µM. The “cytotoxicity IC50” value in assay [3] is 7.2 µM.
As to `NC(=O)Nc1cc(-c2cccc(F)c2)sc1C(=O)N[C@H]1CCCNC1`, the maximal inhibition in assay [1] stood at 99. The IC50 in assay [2] is 0.37 µM. Moreover, the “cytotoxicity IC50” value in assay [3] was more than 100 µM.
The like results for `Cc1ccc(NC(=O)c2ccc(CN3CCN(C)CC3)cc2)cc1Nc1nccc(-c2cccnc2)n1` were, in that order, 64, 60 µM and 41 µM.
`O=[N+]([O-])c1ccc(O)c2ncccc12` showed a maximal inhibition in assay [1] of 94. In addition, in assay [2], the half-inhibitory concentration (IC50) was found to be 6 µM. Moreover, the “cytotoxicity IC50” value in assay [3] is 4.7 µM.
In assay [1], `Cc1ccc(C(=O)N(CCCN)[C@@H](c2nc3cc(Cl)ccc3c(=O)n2Cc2ccccc2)C(C)C)cc1` yielded a maximal inhibition of 98. The same compound yielded an IC50 in assay [2] of 0.067 µM. Also, the “cytotoxicity IC50” value in assay [3] was found to be 37 µM.
The like results for `C[C@@H]1CC[C@@]2(OC1)O[C@H]1C[C@H]3[C@@H]4CC=C5C[C@@H](O[C@@H]6O[C@H](CO)[C@@H](O[C@@H]7O[C@@H](C)[C@H](O)[C@@H](O)[C@H]7O)[C@H](O)[C@H]6O[C@@H]6O[C@@H](C)[C@H](O)[C@@H](O)[C@H]6O)CC[C@]5(C)[C@H]4CC[C@]3(C)[C@H]1[C@@H]2C` were, in that order, 99, 16 µM and 45 µM.
The like results for `NCC(=O)Nc1ccc(-n2nc(C(F)(F)F)cc2-c2ccc3c(ccc4ccccc43)c2)cc1` were, in that order, 106, 0.99 µM and 10 µM.
